According to ChEMBL document CHEMBL3351907, “Design, synthesis and biological evaluation of benzyl 2-(1H-imidazole-1-yl) pyrimidine analogues as selective and potent Raf inhibitors” (Bioorg Med Chem Lett, 2014):
The source made the active and inactive calls. No cut-off for these calls is given here.

Columns and labels:
Assay type in all cases: functional
[1] = (§1) Cytotoxicity against human A375P cells assessed as cell viability after 24 hrs by MTT assay
[2] = system: U-937; assay: (§2) Cytotoxicity against human U937 cells assessed as cell viability after 24 hrs by MTT assay
[3] = system: A375P; assay: as §1
[4] = as §2; details: U-937, 24 h

C[C@H](O)CNc1nccc(-n2ccnc2C(=O)c2ccc(NC(=O)c3ccc(C(F)(F)F)c(N4CCOCC4)c3)cc2)n1
GI50 [1]: 7.07 µM | GI50 [2]: inactive

C[C@H](O)CNc1nccc(-n2ccnc2Cc2cccc(NC(=O)c3ccc4ccccc4n3)c2)n1
GI50 [3]: inactive | GI50 [4]: 23.8 µM

C[C@H](O)CNc1nccc(-n2ccnc2C(=O)c2cccc(NC(=O)Nc3ccc(Cl)c(Cl)c3)c2)n1
GI50 [1]: > 30 µM | GI50 [4]: 14.7 µM

Cc1cc(C)cc(C(=O)Nc2cccc(Cc3nccn3-c3ccnc(NC[C@H](C)O)n3)c2)c1
GI50 [3]: inactive | GI50 [4]: 16.8 µM

CNC(=O)c1cc(Oc2ccc(NC(=O)Nc3ccc(Cl)c(C(F)(F)F)c3)cc2)ccn1 [SORAFENIB]
GI50 [1]: 3.4 µM | GI50 [4]: 2.74 µM

C[C@H](O)CNc1nccc(-n2ccnc2C(=O)c2ccc(NC(=O)c3cccc(Cl)c3)cc2)n1
GI50 [1]: > 30 µM | GI50 [4]: > 30 µM

C[C@H](O)CNc1nccc(-n2ccnc2C(=O)c2cccc(NC(=O)c3cccc(Cl)c3)c2)n1
GI50 [1]: > 30 µM | GI50 [4]: > 30 µM

C[C@H](O)CNc1nccc(-n2ccnc2Cc2cccc(NC(=O)c3cnn(-c4ccccc4)c3C(F)(F)F)c2)n1
GI50 [1]: 6.39 µM | GI50 [4]: 25.8 µM

CCN1CCN(Cc2ccc(NC(=O)Nc3cccc(Cc4nccn4-c4ccnc(NC[C@H](C)O)n4)c3)cc2C(F)(F)F)CC1
GI50 [1]: > 30 µM | GI50 [4]: > 30 µM

C[C@H](O)CNc1nccc(-n2ccnc2C(=O)c2ccc(NC(=O)c3cc(N4CCN(C)CC4)cc(C(F)(F)F)c3)cc2)n1
GI50 [1]: 5.92 µM | GI50 [2]: inactive

COc1ccc(-c2ccc(C(=O)Nc3cccc(C(=O)c4nccn4-c4ccnc(NC[C@H](C)O)n4)c3)o2)cc1
GI50 [1]: 9.39 µM | GI50 [4]: 2.55 µM

C[C@H](O)CNc1nccc(-n2ccnc2Cc2cccc(NC(=O)C(c3ccc(Cl)cc3)c3ccc(Cl)cc3)c2)n1
GI50 [1]: 3.97 µM | GI50 [4]: 3.24 µM

C[C@H](O)CNc1nccc(-n2ccnc2Cc2cccc(NC(=O)c3ccccc3Sc3ccccc3C#N)c2)n1
GI50 [3]: inactive | GI50 [4]: 10 µM

C[C@H](O)CNc1nccc(-n2ccnc2C(=O)c2ccc(NC(=O)c3ccc(Cl)c(C(F)(F)F)c3)cc2)n1
GI50 [1]: > 30 µM | GI50 [4]: > 30 µM

C[C@H](O)CNc1nccc(-n2ccnc2Cc2cccc(NC(=O)Cc3c[nH]c4ccccc34)c2)n1
GI50 [1]: > 30 µM | GI50 [4]: > 30 µM

C[C@H](O)CNc1nccc(-n2ccnc2Cc2cccc(NC(=O)c3ccccc3F)c2)n1
GI50 [1]: 7.45 µM | GI50 [4]: > 30 µM

C[C@H](O)CNc1nccc(-n2ccnc2C(=O)c2ccc(NC(=O)Nc3ccc(Cl)c(C(F)(F)F)c3)cc2)n1
GI50 [1]: > 30 µM | GI50 [4]: 7.45 µM

C[C@H](O)CNc1nccc(-n2ccnc2Cc2cccc(NC(=O)c3ccc(N4CCOCC4)c(C(F)(F)F)c3)c2)n1
GI50 [3]: inactive | GI50 [2]: inactive

C[C@H](O)CNc1nccc(-n2ccnc2C(=O)c2cccc(NC(=O)c3cccc(C(F)(F)F)c3)c2)n1
GI50 [1]: > 30 µM | GI50 [4]: 3.78 µM

C[C@H](O)CNc1nccc(-n2ccnc2Cc2cccc(NC(=O)Nc3ccc(Cl)c(Cl)c3)c2)n1
GI50 [1]: 19.2 µM | GI50 [4]: 1.73 µM
